What was measured:
Experiment in all cases: relative viability (nuclei count vs DMSO), 5 days (fraction); higher = more cells survive
201T = system: 201T
Outline: (§1)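 Lung cancer cell lines in 1536-well plates got either a single drug or a fixed anchor-drug dose together with five library-drug doses (not always all listed) in √10 steps, by pin tool, on the day after seeding. Nuclei were counted after 5 days, and relative viability is the treated-to-vehicle ratio of nuclei counts. Values are medians of duplicate plates.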

A-427 = system: A-427
Outline: as §1

ABC-1 = system: ABC-1
Outline: as §1

BEN = system: BEN
Outline: as §1

CAL-12T = system: CAL-12T
Outline: as §1

H3255 = system: H3255
Outline: as §1

HCC-15 = system: HCC-15
Outline: as §1

LC-2-ad = system: LC-2-ad
Outline: as §1

LCLC-97TM1 = system: LCLC-97TM1
Outline: as §1

NCI-H1651 = system: NCI-H1651
Outline: as §1

NCI-H1792 = system: NCI-H1792
Outline: as §1

NCI-H1915 = system: NCI-H1915
Outline: as §1

NCI-H1944 = system: NCI-H1944
Outline: as §1

NCI-H2023 = system: NCI-H2023
Outline: as §1

NCI-H2087 = system: NCI-H2087
Outline: as §1

NCI-H441 = system: NCI-H441
Outline: as §1

NCI-H460 = system: NCI-H460
Outline: as §1

NCI-H520 = system: NCI-H520
Outline: as §1

NCI-H596 = system: NCI-H596
Outline: as §1

NCI-H650 = system: NCI-H650
Outline: as §1

NCI-H661 = system: NCI-H661
Outline: as §1

NCI-H727 = system: NCI-H727
Outline: as §1

PC-3 [JPC-3] = system: PC-3 [JPC-3]
Outline: as §1

`Clc1ccc(Nc2nnc(Cc3ccncc3)c3ccccc23)cc1` [Vatalanib] + C[C@]1(O)C[C@@H](c2nc(-c3ccc4ccc(-c5ccccc5)nc4c3)c3c(N)nccn32)C1 [Linsitinib] (partner 1 µM) was tested, and the relative viability (201T; first compound 0.04 µM) was 1.02, the relative viability (201T; first compound 0.1265 µM) was 1.04 and the relative viability (201T; first compound 0.4 µM) was 1.02. It also gave a relative viability (201T; first compound 1.265 µM) of 0.985, a relative viability (201T; first compound 4 µM) of 0.949 and a relative viability (A-427; first compound 0.04 µM) of 1.15. The relative viability (A-427; first compound 0.1265 µM) was 1.1, the relative viability (A-427; first compound 0.4 µM) was 1.13 and the relative viability (A-427; first compound 1.265 µM) was 1.06. The relative viability (A-427; first compound 4 µM) was 1.1, the relative viability (ABC-1; first compound 0.04 µM) was 0.89 and the relative viability (ABC-1; first compound 0.1265 µM) was 0.767. For the same compound, the relative viability (ABC-1; first compound 0.4 µM) was 1.05, the relative viability (ABC-1; first compound 1.265 µM) was 0.659 and the relative viability (ABC-1; first compound 4 µM) was 0.981. For the same compound, the relative viability (BEN; first compound 0.04 µM) was 0.992, the relative viability (BEN; first compound 0.1265 µM) was 0.785 and the relative viability (BEN; first compound 0.4 µM) was 0.99. The relative viability (BEN; first compound 1.265 µM) was 0.943, the relative viability (BEN; first compound 4 µM) was 0.97 and the relative viability (CAL-12T; first compound 0.04 µM) was 0.826. The relative viability (CAL-12T; first compound 0.1265 µM) was 0.787, the relative viability (CAL-12T; first compound 0.4 µM) was 0.848 and the relative viability (CAL-12T; first compound 1.265 µM) was 0.755. It also gave a relative viability (CAL-12T; first compound 4 µM) of 0.822, a relative viability (H3255; first compound 0.04 µM) of 0.984 and a relative viability (H3255; first compound 0.1265 µM) of 0.902. It also gave a relative viability (H3255; first compound 0.4 µM) of 0.702, a relative viability (H3255; first compound 1.265 µM) of 0.932 and a relative viability (H3255; first compound 4 µM) of 0.921. It also gave a relative viability (HCC-15; first compound 0.04 µM) of 0.937, a relative viability (HCC-15; first compound 0.1265 µM) of 0.911 and a relative viability (HCC-15; first compound 0.4 µM) of 0.902. It also gave a relative viability (HCC-15; first compound 1.265 µM) of 0.87, a relative viability (HCC-15; first compound 4 µM) of 0.873 and a relative viability (LC-2-ad; first compound 0.04 µM) of 0.916. The relative viability (LC-2-ad; first compound 0.1265 µM) was 0.799, the relative viability (LC-2-ad; first compound 0.4 µM) was 0.971 and the relative viability (LC-2-ad; first compound 1.265 µM) was 0.841. It also gave a relative viability (LC-2-ad; first compound 4 µM) of 0.883, a relative viability (LCLC-97TM1; first compound 0.04 µM) of 0.183 and a relative viability (LCLC-97TM1; first compound 0.1265 µM) of 0.17. It also gave a relative viability (LCLC-97TM1; first compound 0.4 µM) of 0.189, a relative viability (LCLC-97TM1; first compound 1.265 µM) of 0.159 and a relative viability (LCLC-97TM1; first compound 4 µM) of 0.179. The relative viability (NCI-H1651; first compound 0.04 µM) was 0.971, the relative viability (NCI-H1651; first compound 0.1265 µM) was 0.927 and the relative viability (NCI-H1651; first compound 0.4 µM) was 0.94. It also gave a relative viability (NCI-H1651; first compound 1.265 µM) of 0.948, a relative viability (NCI-H1651; first compound 4 µM) of 1.13 and a relative viability (NCI-H1792; first compound 0.04 µM) of 0.465. It also gave a relative viability (NCI-H1792; first compound 0.1265 µM) of 0.494, a relative viability (NCI-H1792; first compound 0.4 µM) of 0.506 and a relative viability (NCI-H1792; first compound 1.265 µM) of 0.493. It also gave a relative viability (NCI-H1792; first compound 4 µM) of 0.515, a relative viability (NCI-H1915; first compound 0.04 µM) of 1.06 and a relative viability (NCI-H1915; first compound 0.1265 µM) of 1.09. For the same compound, the relative viability (NCI-H1915; first compound 0.4 µM) was 1.09, the relative viability (NCI-H1915; first compound 1.265 µM) was 1.04 and the relative viability (NCI-H1915; first compound 4 µM) was 1.09. For the same compound, the relative viability (NCI-H1944; first compound 0.04 µM) was 1.11, the relative viability (NCI-H1944; first compound 0.1265 µM) was 0.997 and the relative viability (NCI-H1944; first compound 0.4 µM) was 1.17. The relative viability (NCI-H1944; first compound 1.265 µM) was 1.2, the relative viability (NCI-H1944; first compound 4 µM) was 1.23 and the relative viability (NCI-H2023; first compound 0.04 µM) was 0.726. For the same compound, the relative viability (NCI-H2023; first compound 0.1265 µM) was 0.735, the relative viability (NCI-H2023; first compound 0.4 µM) was 0.815 and the relative viability (NCI-H2023; first compound 1.265 µM) was 0.571. The relative viability (NCI-H2023; first compound 4 µM) was 0.705, the relative viability (NCI-H2087; first compound 0.04 µM) was 1.2 and the relative viability (NCI-H2087; first compound 0.1265 µM) was 0.87. The relative viability (NCI-H2087; first compound 0.4 µM) was 1.04, the relative viability (NCI-H2087; first compound 1.265 µM) was 0.908 and the relative viability (NCI-H2087; first compound 4 µM) was 1.05. The relative viability (NCI-H441; first compound 0.04 µM) was 0.597, the relative viability (NCI-H441; first compound 0.1265 µM) was 0.515 and the relative viability (NCI-H441; first compound 0.4 µM) was 0.583. The relative viability (NCI-H441; first compound 1.265 µM) was 0.722, the relative viability (NCI-H441; first compound 4 µM) was 0.645 and the relative viability (NCI-H460; first compound 0.04 µM) was 1.01. For the same compound, the relative viability (NCI-H460; first compound 0.1265 µM) was 0.684, the relative viability (NCI-H460; first compound 0.4 µM) was 0.732 and the relative viability (NCI-H460; first compound 1.265 µM) was 0.699. It also gave a relative viability (NCI-H460; first compound 4 µM) of 0.711, a relative viability (NCI-H520; first compound 0.04 µM) of 0.901 and a relative viability (NCI-H520; first compound 0.1265 µM) of 0.888. It also gave a relative viability (NCI-H520; first compound 0.4 µM) of 0.802, a relative viability (NCI-H520; first compound 1.265 µM) of 0.86 and a relative viability (NCI-H520; first compound 4 µM) of 0.989. It also gave a relative viability (NCI-H596; first compound 0.04 µM) of 1.18, a relative viability (NCI-H596; first compound 0.1265 µM) of 1.13 and a relative viability (NCI-H596; first compound 0.4 µM) of 0.951. For the same compound, the relative viability (NCI-H596; first compound 1.265 µM) was 1.14, the relative viability (NCI-H596; first compound 4 µM) was 1.08 and the relative viability (NCI-H650; first compound 0.04 µM) was 0.942. The relative viability (NCI-H650; first compound 0.1265 µM) was 0.77, the relative viability (NCI-H650; first compound 1.265 µM) was 0.723 and the relative viability (NCI-H650; first compound 4 µM) was 0.833. The relative viability (NCI-H661; first compound 0.04 µM) was 0.59, the relative viability (NCI-H661; first compound 0.1265 µM) was 0.477 and the relative viability (NCI-H661; first compound 0.4 µM) was 0.616. The relative viability (NCI-H661; first compound 1.265 µM) was 0.581, the relative viability (NCI-H661; first compound 4 µM) was 0.581 and the relative viability (NCI-H727; first compound 0.04 µM) was 0.3. For the same compound, the relative viability (NCI-H727; first compound 0.1265 µM) was 0.184, the relative viability (NCI-H727; first compound 0.4 µM) was 0.358 and the relative viability (NCI-H727; first compound 1.265 µM) was 0.236. The relative viability (NCI-H727; first compound 4 µM) was 0.285, the relative viability (PC-3 [JPC-3]; first compound 0.04 µM) was 0.986 and the relative viability (PC-3 [JPC-3]; first compound 0.1265 µM) was 1.01. It also gave a relative viability (PC-3 [JPC-3]; first compound 0.4 µM) of 0.957, a relative viability (PC-3 [JPC-3]; first compound 1.265 µM) of 0.824 and a relative viability (PC-3 [JPC-3]; first compound 4 µM) of 0.932.

Reference: the supplement of paper PMC10307832
